Calls of active or inactive are those of the source.
Tests used:
Leucine aminopeptidase = biological target: T1, Leucine aminopeptidase (Plasmodium falciparum 3D7, UniProt Q8IL11); experiment: P. falciparum M17LAP inhibitors, primary screen, biochemical, fluorogenic H-Leu-NHMec substrate, 1536-well (AID 1619); assay type: functional
T1 sequence (Q8IL11 whole entry): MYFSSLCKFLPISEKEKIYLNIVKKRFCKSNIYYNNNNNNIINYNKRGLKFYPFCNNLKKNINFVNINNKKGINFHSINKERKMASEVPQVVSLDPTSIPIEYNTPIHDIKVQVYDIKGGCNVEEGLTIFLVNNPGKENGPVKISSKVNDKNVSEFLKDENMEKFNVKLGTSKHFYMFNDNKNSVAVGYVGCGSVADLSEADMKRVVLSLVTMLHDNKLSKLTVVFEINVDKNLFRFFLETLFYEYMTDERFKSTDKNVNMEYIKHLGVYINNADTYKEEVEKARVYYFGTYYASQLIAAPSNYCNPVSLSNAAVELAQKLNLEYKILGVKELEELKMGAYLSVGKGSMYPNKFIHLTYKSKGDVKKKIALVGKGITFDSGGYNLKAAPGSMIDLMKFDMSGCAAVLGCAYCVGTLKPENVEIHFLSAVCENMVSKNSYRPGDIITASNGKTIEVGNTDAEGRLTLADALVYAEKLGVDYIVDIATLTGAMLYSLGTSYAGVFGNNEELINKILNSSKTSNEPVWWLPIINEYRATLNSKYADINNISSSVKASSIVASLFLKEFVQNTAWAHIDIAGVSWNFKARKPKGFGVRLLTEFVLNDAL

Procathepsin L = Procathepsin L (Homo sapiens, UniProt P07711); experiment: CTSL1 protease inhibition – biochemical, QFRET, 1536-well, counter-screen for M1/M17 aminopeptidase inhibitor project, dose response (AID 2214)
Sequence of Procathepsin L (P07711 whole entry): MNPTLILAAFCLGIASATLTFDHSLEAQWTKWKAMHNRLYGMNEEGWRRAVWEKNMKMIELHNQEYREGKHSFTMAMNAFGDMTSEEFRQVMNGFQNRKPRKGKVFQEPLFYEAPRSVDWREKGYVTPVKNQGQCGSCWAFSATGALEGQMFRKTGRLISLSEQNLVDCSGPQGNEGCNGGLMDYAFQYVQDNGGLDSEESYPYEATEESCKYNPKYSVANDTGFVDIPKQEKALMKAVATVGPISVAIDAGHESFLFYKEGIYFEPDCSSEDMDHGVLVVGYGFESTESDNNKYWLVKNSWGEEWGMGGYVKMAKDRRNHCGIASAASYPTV

Aspartyl aminopeptidase = biological target: T2, Aspartyl aminopeptidase (Plasmodium falciparum 3D7, UniProt Q8I2J3); experiment: Counterscreen for inhibitors of M1 and M17 aminopeptidases: QFRET-based biochemical high throughput dose response assay for inhibitors of the Plasmodium falciparum M18 Aspartyl Aminopeptidase (PFM18AAP). [Related PubChem assays: 1619 (Screening assay (M17LAP inhibitors).), 1445 (Screening assay (M1AAP inhibitors).)]
T2 sequence (Q8I2J3 whole entry): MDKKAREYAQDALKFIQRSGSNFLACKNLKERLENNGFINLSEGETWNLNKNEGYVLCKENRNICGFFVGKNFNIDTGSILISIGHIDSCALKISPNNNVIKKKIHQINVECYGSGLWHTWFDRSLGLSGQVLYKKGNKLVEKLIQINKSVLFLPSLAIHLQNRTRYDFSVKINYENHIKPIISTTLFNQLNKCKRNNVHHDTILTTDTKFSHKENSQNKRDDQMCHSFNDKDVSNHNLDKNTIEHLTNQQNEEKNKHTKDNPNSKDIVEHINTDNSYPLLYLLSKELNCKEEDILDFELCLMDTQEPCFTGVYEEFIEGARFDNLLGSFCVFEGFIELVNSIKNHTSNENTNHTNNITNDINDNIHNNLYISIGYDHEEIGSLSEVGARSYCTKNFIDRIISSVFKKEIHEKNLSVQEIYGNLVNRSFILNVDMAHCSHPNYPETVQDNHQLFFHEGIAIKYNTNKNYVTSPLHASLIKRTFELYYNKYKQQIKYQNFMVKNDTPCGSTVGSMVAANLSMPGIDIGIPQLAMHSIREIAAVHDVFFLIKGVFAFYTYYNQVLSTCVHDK

Cytochrome P450 2C19 [1] = biological target: T3, Cytochrome P450 2C19 (Homo sapiens, UniProt P33261); experiment: qHTS Assay for Inhibitors and Substrates of Cytochrome P450 2C19. [Related pubchem assays: 410 ]; assay type: ADME; conditions: read-out: Potency
T3 sequence (P33261 whole entry): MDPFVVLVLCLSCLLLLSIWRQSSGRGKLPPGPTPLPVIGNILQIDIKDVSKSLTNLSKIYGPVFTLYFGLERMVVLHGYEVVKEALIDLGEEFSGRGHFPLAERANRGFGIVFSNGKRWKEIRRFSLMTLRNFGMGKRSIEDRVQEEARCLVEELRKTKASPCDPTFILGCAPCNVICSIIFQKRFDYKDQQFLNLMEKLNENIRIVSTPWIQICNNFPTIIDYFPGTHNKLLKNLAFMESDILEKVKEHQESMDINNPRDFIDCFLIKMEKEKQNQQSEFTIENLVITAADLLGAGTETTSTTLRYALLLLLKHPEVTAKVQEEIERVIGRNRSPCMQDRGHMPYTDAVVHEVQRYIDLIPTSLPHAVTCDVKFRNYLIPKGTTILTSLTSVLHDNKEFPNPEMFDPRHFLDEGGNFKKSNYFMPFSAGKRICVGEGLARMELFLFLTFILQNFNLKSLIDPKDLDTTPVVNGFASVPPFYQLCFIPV

Cytochrome P450 2C19 [2] = biological target: T3, Cytochrome P450 2C19; experiment: Cytochrome panel assay with activity outcomes. Panel member name: p450-cyp2c19 Compounds with AC50 equal or less than 10 uM are considered active; assay type: functional; conditions: read-out: AC50
[3] = biological target: T4, Replicative DNA helicase DnaB (Mycobacterium tuberculosis, UniProt P9WMR3); experiment: DnaB intein splicing inhibitors, dose response, biochemical, cell-free fluorescence (AID 449749); assay type: functional
T4 sequence (P9WMR3 whole entry): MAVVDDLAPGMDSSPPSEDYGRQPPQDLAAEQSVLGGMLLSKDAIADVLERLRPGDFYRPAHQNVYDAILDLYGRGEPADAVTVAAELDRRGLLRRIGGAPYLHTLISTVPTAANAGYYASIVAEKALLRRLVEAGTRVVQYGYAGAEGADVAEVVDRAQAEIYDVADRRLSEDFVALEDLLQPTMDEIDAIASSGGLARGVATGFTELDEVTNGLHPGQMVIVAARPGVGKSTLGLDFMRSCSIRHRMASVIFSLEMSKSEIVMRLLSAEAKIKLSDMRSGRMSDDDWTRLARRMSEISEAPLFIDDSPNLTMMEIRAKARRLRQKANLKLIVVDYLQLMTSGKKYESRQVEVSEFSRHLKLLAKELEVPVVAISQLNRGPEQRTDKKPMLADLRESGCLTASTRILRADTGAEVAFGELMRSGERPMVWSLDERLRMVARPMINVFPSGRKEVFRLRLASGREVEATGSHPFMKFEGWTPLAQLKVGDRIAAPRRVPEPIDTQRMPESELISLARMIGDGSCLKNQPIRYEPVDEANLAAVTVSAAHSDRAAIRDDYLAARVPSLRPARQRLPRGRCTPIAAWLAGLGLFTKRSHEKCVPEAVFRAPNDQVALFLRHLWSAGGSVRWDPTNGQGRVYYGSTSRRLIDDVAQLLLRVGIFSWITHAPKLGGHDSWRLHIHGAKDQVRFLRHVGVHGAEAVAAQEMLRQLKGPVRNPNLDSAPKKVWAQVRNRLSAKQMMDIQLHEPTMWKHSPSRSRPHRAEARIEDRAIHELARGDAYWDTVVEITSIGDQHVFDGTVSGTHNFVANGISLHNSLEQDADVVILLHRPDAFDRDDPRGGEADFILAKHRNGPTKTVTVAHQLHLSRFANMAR

Vero [4] = experiment: mammalian cell viability reduction – secondary assay, cytotoxicity control for West Nile virus antiviral project, dose response (AID 1650); assay type: functional; conditions: Chlorocebus sabaeus
Vero [5] = experiment: cells; assay type: functional, cell-based; conditions: Chlorocebus sabaeus
[6] = biological target: T5, Heat shock factor protein 1 (Mus musculus, UniProt P38532); experiment: enhancement of HSF1-driven luciferase signal – cell-based, NIH3T3, luminescence, dose retest, confirmation (AID 435004); assay type: functional;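 also: stress induced by proteasome inhibitor MG132 added 30 min after compound; luciferase reporter driven by HSF1 response element in NIH3T3 cells; actives raise luminescence as potentiators of the MG132 stress response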
T5 sequence (P38532 whole entry): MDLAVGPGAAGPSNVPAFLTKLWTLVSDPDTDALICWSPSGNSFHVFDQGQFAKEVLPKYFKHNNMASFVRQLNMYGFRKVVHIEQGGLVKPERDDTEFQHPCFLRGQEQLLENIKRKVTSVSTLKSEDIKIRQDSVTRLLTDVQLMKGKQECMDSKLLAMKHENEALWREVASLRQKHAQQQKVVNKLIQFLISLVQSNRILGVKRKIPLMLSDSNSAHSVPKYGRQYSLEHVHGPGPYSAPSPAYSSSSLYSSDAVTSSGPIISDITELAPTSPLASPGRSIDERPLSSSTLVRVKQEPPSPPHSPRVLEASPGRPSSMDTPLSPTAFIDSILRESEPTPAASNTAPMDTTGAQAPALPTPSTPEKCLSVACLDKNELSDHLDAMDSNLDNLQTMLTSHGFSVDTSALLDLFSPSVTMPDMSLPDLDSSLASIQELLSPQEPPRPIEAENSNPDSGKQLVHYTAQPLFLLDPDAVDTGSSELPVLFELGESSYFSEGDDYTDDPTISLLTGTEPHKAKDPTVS

Vero [7] = experiment: cells; assay type: functional; conditions: Chlorocebus sabaeus
Protein RecA = biological target: T6, Protein RecA (Mycobacterium tuberculosis, UniProt P9WHJ3); experiment: Fluorescence Cell-Free Homogeneous Dose Retest to Identify Inhibitors of RecA-Intein Splicing Activity. [Related pubchem assays (depositor defined):AID2097, AID2223, AID489010, AID492950]; assay type: functional
T6 sequence (P9WHJ3 whole entry): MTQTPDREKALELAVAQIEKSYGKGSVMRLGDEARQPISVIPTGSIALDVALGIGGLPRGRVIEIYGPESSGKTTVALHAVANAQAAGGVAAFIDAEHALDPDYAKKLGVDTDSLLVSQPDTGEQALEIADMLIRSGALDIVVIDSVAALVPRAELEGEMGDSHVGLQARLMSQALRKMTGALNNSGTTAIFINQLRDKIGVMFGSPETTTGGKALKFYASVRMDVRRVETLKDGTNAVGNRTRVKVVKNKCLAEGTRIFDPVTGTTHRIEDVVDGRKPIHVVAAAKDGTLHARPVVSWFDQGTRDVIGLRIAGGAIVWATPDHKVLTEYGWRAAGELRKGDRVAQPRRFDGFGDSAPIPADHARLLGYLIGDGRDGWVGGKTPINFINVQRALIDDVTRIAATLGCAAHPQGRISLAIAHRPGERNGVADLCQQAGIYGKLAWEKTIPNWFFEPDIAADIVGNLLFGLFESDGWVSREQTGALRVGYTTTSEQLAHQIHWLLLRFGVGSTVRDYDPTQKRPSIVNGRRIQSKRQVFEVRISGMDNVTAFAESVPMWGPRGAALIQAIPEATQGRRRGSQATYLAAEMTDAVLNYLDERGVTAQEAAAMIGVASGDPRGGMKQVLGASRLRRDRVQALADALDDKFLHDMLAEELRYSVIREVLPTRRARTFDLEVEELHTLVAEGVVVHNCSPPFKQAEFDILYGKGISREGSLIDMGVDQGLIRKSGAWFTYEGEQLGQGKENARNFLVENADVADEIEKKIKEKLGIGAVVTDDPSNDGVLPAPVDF

`COC(=O)c1c(NC(=O)C2CC=CCC2C(=O)O)sc(C)c1C` (centres undefined) was tested. Which IC50 (Leucine aminopeptidase) did it give?
Its IC50 is 4.32 µM (active).

And the IC50 (Procathepsin L)?
The IC50 was > 59.6 µM (not active).

And the IC50 (Aspartyl aminopeptidase)?
The IC50 was > 73.5 µM (not active).

Which results are given for `COc1cc2c(cc1C(F)(F)F)N(C(=O)Nc1cc(F)cc(-c3cccnc3)c1)CC2`?
AC50 (Cytochrome P450 2C19 [1]): 1 µM (inconclusive); AC50 (Cytochrome P450 2C19 [2]): 10 µM (inconclusive)

With `CCc1cc2ccc(C)cc2nc1SCC(=O)Nc1cc(OC)c(OC)cc1C(=O)O` as the compound, how does the IC50 (Leucine aminopeptidase) read?
The IC50 was < 1 µM (active).

What about the IC50 (Procathepsin L) of the same compound?
Its IC50 is > 59.6 µM (not active).

What about the IC50 (Aspartyl aminopeptidase) of the same compound?
Its IC50 is > 73.5 µM (not active).

How did the AC50 [3] turn out when `Cc1ccccc1NC(=O)C(=Cc1ccc(C(=O)O)cc1)C(=O)Nc1ccccc1C` was run?
Its AC50 is 3.66 µM (active).

What about the CC50 (Vero [4]) of the same compound?
The CC50 was 7.39 µM (active).

What about the IC50 (Vero [5]) of the same compound?
Its IC50 is > 25 µM (active).

And the EC50 [6]?
Its EC50 is 29 µM (active).

And the CC50 (Vero [7])?
Its CC50 is 14.7 µM (active).

What about the EC50 (Protein RecA) of the same compound?
Its EC50 is 5.08 µM (active).

Reference: ChEMBL document CHEMBL1201862, “PubChem BioAssay data set” (2004)
